Literature values, collected in patent US11384033B2, “Compositions with improved urease-inhibiting effect comprising (thio)phosphoric acid triamide and further compounds such as amines and colorants” (BASF SE, priority 2014, dated 2022).

Conditions: de-ionized water at 25° C. and atmospheric pressure

CC(O)CO (stereo not shown) [propane-1,2-diol]
pKa value: 14.9
